# Experimental data published in US6897316B2, “Substituted 2-phenyl-4-quinolone-3-carboxylic acid compounds and their use as antitumor agents” (China Medical University, priority 2003, dated 2005).
# Assays:
# Assay type in all cases: cell-based, human
# Details in all cases: mean ED50
# [1] = tested on: bone (HOS) cell line; assay: Activity against HTCL replication, HOS
# Experimental: (§1) Compounds were assayed for in vitro cytotoxicity in a panel of human tumor cell lines at the School of Pharmacy, University of North Carolina at Chapel Hill, according to procedures described previously [Lee, K. H., Lin, Y. M., Wu, T. S., Zhang, D. C., Yamagishi, T., Hayashi, T., Hall, I. H., Chang, J. J., Wu, R. Y., Yang, T. H. The cytotoxic principles of Prunella vulgaris, Psychotria serpens, and Hyptis capitata: Ursolic acid and related derivatives. Planta Med. 1988, 54, 308-11; Boyd, M. R. Status of the National Cancer Institute preclinical antitumor drug discovery screen: implications for selection of new agents for clinical trial. Devita, V. T., Jr. Hellman, S., Rosenberg, S. A., Eds, J. B. Cancer: Principles and Practice of Oncology Update, 1989, 3: pp1-12, Lippincoft: Philadephia; Monks, A., Scudiero, D., Skehan, P., Shoemaker, R., Paull, K., Vistica, D., Hose, C., Langley, J., Cronise, P., Vaigro-Wolff, A., Gray-Goodrich, M., Campbell, H., Mayo, J., Boyd, M. Feasibility of a high-flux anticancer drug screen using a diverse panel of cultured human tumor cell lines. J. Natl. Cancer Inst. 1991, 83, 757-66.] […]
# [2] = tested on: epidermoid carcinoma of the nasopharynx (KB) cell line; assay: Activity against HTCL replication, KB
# Experimental: as §1
# [3] = tested on: Vincristine-resistant epidermoid carcinoma of the nasopharynx (KB-VIN) cell line; assay: Activity against HTCL replication, KB-VIN
# Experimental: as §1
# [4] = tested on: melanoma (SK-MEL-2) cell line; assay: Activity against HTCL replication, SK-MEL-2
# Experimental: as §1
# [5] = tested on: glioblastoma (U87-MG) cell line; assay: Activity against HTCL replication, U87-MG
# Experimental: as §1
# [6] = tested on: ileocecal carcinoma (HCT-8) cell line; assay: Activity against HTCL replication, HCT-8
# Experimental: as §1
smiles,measurement,setting,value
"COc1ccc2[nH]c(-c3cccc(F)c3)c(C(=O)O)c(=O)c2c1 [IX-8, 3′-Fluoro-6-methoxy-2-phenyl-4-quinolone-3-carboxylic acid]",ED50 HOS,[1],0.14 µg/mL
same,ED50 KB,[2],0.13 µg/mL
same,ED50 KB-VIN,[3],0.13 µg/mL
same,ED50 SK-MEL-2,[4],0.16 µg/mL
same,ED50 U87-MG,[5],1.50 µg/mL
same,ED50 HCT-8,[6],0.14 µg/mL
